Values quoted from earlier work, collected in patent publication US8197851B2, “Carotenoid composition and method for preparation thereof” (priority 2004, dated 2012).

Tests used:
[1] = levels as high as 800 mg
[2] = test system: cell surface molecules that initiate immune response; conditions: human trials
[3] = test system: human epidermis (ex vivo); conditions: topical
[4] = test system: natural killer cell (NK) activity; conditions: elderly men
[5] = test system: UV light-suppressed immune function (DTH); conditions: young and elderly men
[6] = test system: Gap Junctional Communication (GJC); conditions: independent of Vitamin A activity or antioxidant actions
[7] = test system: mouse epidermis (in vivo); conditions: topical
[8] = test system: macular degeneration changes; conditions: 80 mg, versus placebo

CC(=O)Oc1c(C)c(C)c2c(c1C)CC[C@@](C)(CCC[C@H](C)CCC[C@H](C)CCCC(C)C)O2 (racemic) [dl-alpha tocopheryl acetate]
adverse effects [1]: No adverse effects

CC1=C(/C=C/C(C)=C/C=C/C(C)=C/C=C/C=C(C)/C=C/C=C(C)/C=C/C2=C(C)CCCC2(C)C)C(C)(C)CCC1 [beta-carotene]
expression of cell surface molecules that initiate immune response [2]: stimulated expression of cell surface molecules that initiate immune response
increase of epidermal retinyl esters [3]: 10 fold
age related decline in natural killer cell (NK) activity [4]: Prevented age related decline in natural killer cell (NK) activity
UV light-suppressed immune function (DTH) [5]: Prevented UV light-suppressed immune function (DTH)
increase of GJC [6]: most potent in increasing GJC
increase of epidermal retinyl esters [7]: 3 fold

[Zn] [zinc]
retarding macular degeneration changes [8]: significantly better than placebo
